Measured values as given in ChEMBL document CHEMBL3045939, “Synthesis and evaluation of fused pyrimidine derivatives as anti-inflammatory, antiproliferative and antimicrobial agents” (Med Chem Res, 2012).
≈ marks a conversion by molar mass, not a printed value.

Legend:
Aspergillus flavus [1] = assay: Antimicrobial activity against Aspergillus flavus ATCC 15517 after 48 hr by broth micro dilution assay; format: functional; conditions: ATCC 15517, 48 h
Candida albicans [2] = assay: Antimicrobial activity against Candida albicans ATCC 24433 after 48 hr by broth micro dilution assay; format: functional; conditions: ATCC 24433, 48 h
Escherichia coli [3] = assay: Antimicrobial activity against Escherichia coli ATCC 25922 after 24 hr by broth micro dilution assay; format: functional; conditions: ATCC 25922, 24 h
Staphylococcus aureus [4] = assay: Antimicrobial activity against Staphylococcus aureus ATCC 25923 after 24 hr by broth micro dilution assay; format: functional; conditions: ATCC 25923, 24 h
Pseudomonas aeruginosa [5] = assay: Antimicrobial activity against Pseudomonas aeruginosa ATCC 27853 after 24 hr by broth micro dilution assay; format: functional; conditions: ATCC 27853, 24 h
HEp-2 = assay: Cytotoxicity against Homo sapiens (human) Hep2 cells after 24 hr by MTT assay; format: functional, cell-based; conditions: HEp-2, 24 h
HeLa = assay: Cytotoxicity against Homo sapiens (human) HeLa cells after 24 hr by MTT assay; format: functional, cell-based
[6] = Cytotoxicity against Homo sapiens (human) Chang cells after 24 hr by MTT assay; format: functional, cell-based
Rattus norvegicus [7] = assay: Anti-inflammatory activity in Rattus norvegicus Wistar albino (rat) assessed as carrageenan-induced paw volume at 100 mg/kg, po administered 1 hr prior to carrageenan-challenge measured at 5 hr (reference value: 1.24 +/- 0.0754 mm3); format: functional
Rattus norvegicus [8] = assay: Anti-inflammatory activity in Rattus norvegicus Wistar albino (rat) assessed as carrageenan-induced paw volume at 100 mg/kg, po administered 1 hr prior to carrageenan-challenge measured at 4 hr (reference value: 1.2825 +/- 0.0862 mm3); format: functional
Rattus norvegicus [9] = assay: Anti-inflammatory activity in Rattus norvegicus Wistar albino (rat) assessed as carrageenan-induced paw volume at 100 mg/kg, po administered 1 hr prior to carrageenan-challenge measured at 3 hr (reference value: 1.225 +/- 0.0484 mm3); format: functional
Rattus norvegicus [10] = assay: Anti-inflammatory activity in Rattus norvegicus Wistar albino (rat) assessed as carrageenan-induced paw volume at 100 mg/kg, po administered 1 hr prior to carrageenan-challenge measured at 1 hr (reference value: 1.2075 +/- 0.0405 mm3); format: functional
Rattus norvegicus [11] = assay: Anti-inflammatory activity in Rattus norvegicus Wistar albino (rat) assessed as inhibition of carrageenan-induced paw edema at 100 mg/kg, po administered 1 hr prior to carrageenan-challenge measured at 2 hr relative to control; format: functional
Rattus norvegicus [12] = assay: Anti-inflammatory activity in Rattus norvegicus Wistar albino (rat) assessed as carrageenan-induced paw volume at 100 mg/kg, po administered 1 hr prior to carrageenan-challenge measured at 2 hr (reference value: 1.4175 +/- 0.1931 mm3); format: functional
Rattus norvegicus [13] = assay: Anti-inflammatory activity in Rattus norvegicus Wistar albino (rat) assessed as inhibition of carrageenan-induced paw edema at 100 mg/kg, po administered 1 hr prior to carrageenan-challenge measured at 1 hr relative to control; format: functional
Aspergillus flavus [14] = assay: Antimicrobial activity against Aspergillus flavus ATCC 15517 assessed as reduction in log10 CFU/ml at MIC after 2 hr by time kill study relative to control; format: functional; parameters: scale not given: the % may be the effect or the level left
Candida albicans [15] = assay: Antimicrobial activity against Candida albicans ATCC 24433 assessed as reduction in log10 CFU/ml at MIC after 24 hr by time kill study relative to control; format: functional; parameters: scale not given: the % may be the effect or the level left
Candida albicans [16] = assay: Antimicrobial activity against Candida albicans ATCC 24433 assessed as reduction in log10 CFU/ml at MIC after 12 hr by time kill study relative to control; format: functional; parameters: scale not given: the % may be the effect or the level left
Candida albicans [17] = assay: Antimicrobial activity against Candida albicans ATCC 24433 assessed as reduction in log10 CFU/ml at MIC after 6 hr by time kill study relative to control; format: functional; parameters: scale not given: the % may be the effect or the level left
Candida albicans [18] = assay: Antimicrobial activity against Candida albicans ATCC 24433 assessed as reduction in log10 CFU/ml at MIC after 4 hr by time kill study relative to control; format: functional; parameters: scale not given: the % may be the effect or the level left
Candida albicans [19] = assay: Antimicrobial activity against Candida albicans ATCC 24433 assessed as reduction in log10 CFU/ml at MIC after 2 hr by time kill study relative to control; format: functional; parameters: scale not given: the % may be the effect or the level left
Escherichia coli [20] = assay: Antimicrobial activity against Escherichia coli ATCC 25922 assessed as reduction in log10 CFU/ml at MIC after 24 hr by time kill study relative to control; format: functional; parameters: scale not given: the % may be the effect or the level left
Escherichia coli [21] = assay: Antimicrobial activity against Escherichia coli ATCC 25922 assessed as reduction in log10 CFU/ml at MIC after 12 hr by time kill study relative to control; format: functional; parameters: scale not given: the % may be the effect or the level left
Escherichia coli [22] = assay: Antimicrobial activity against Escherichia coli ATCC 25922 assessed as reduction in log10 CFU/ml at MIC after 6 hr by time kill study relative to control; format: functional; parameters: scale not given: the % may be the effect or the level left
Escherichia coli [23] = assay: Antimicrobial activity against Escherichia coli ATCC 25922 assessed as reduction in log10 CFU/ml at MIC after 4 hr by time kill study relative to control; format: functional; parameters: scale not given: the % may be the effect or the level left
Escherichia coli [24] = assay: Antimicrobial activity against Escherichia coli ATCC 25922 assessed as reduction in log10 CFU/ml at MIC after 2 hr by time kill study relative to control; format: functional; parameters: scale not given: the % may be the effect or the level left
Staphylococcus aureus [25] = assay: Antimicrobial activity against Staphylococcus aureus ATCC 25923 assessed as reduction in log10 CFU/ml at MIC after 24 hr by time kill study relative to control; format: functional; parameters: scale not given: the % may be the effect or the level left
Staphylococcus aureus [26] = assay: Antimicrobial activity against Staphylococcus aureus ATCC 25923 assessed as reduction in log10 CFU/ml at MIC after 12 hr by time kill study relative to control; format: functional; parameters: scale not given: the % may be the effect or the level left
Staphylococcus aureus [27] = assay: Antimicrobial activity against Staphylococcus aureus ATCC 25923 assessed as reduction in log10 CFU/ml at MIC after 6 hr by time kill study relative to control; format: functional; parameters: scale not given: the % may be the effect or the level left
Staphylococcus aureus [28] = assay: Antimicrobial activity against Staphylococcus aureus ATCC 25923 assessed as reduction in log10 CFU/ml at MIC after 4 hr by time kill study relative to control; format: functional; parameters: scale not given: the % may be the effect or the level left
Staphylococcus aureus [29] = assay: Antimicrobial activity against Staphylococcus aureus ATCC 25923 assessed as reduction in log10 CFU/ml at MIC after 2 hr by time kill study relative to control; format: functional; parameters: scale not given: the % may be the effect or the level left
Pseudomonas aeruginosa [30] = assay: Antimicrobial activity against Pseudomonas aeruginosa ATCC 27853 assessed as reduction in log10 CFU/ml at MIC after 24 hr by time kill study relative to control; format: functional; parameters: scale not given: the % may be the effect or the level left
Pseudomonas aeruginosa [31] = assay: Antimicrobial activity against Pseudomonas aeruginosa ATCC 27853 assessed as reduction in log10 CFU/ml at MIC after 12 hr by time kill study relative to control; format: functional; parameters: scale not given: the % may be the effect or the level left
Pseudomonas aeruginosa [32] = assay: Antimicrobial activity against Pseudomonas aeruginosa ATCC 27853 assessed as reduction in log10 CFU/ml at MIC after 6 hr by time kill study relative to control; format: functional; parameters: scale not given: the % may be the effect or the level left
Pseudomonas aeruginosa [33] = assay: Antimicrobial activity against Pseudomonas aeruginosa ATCC 27853 assessed as reduction in log10 CFU/ml at MIC after 4 hr by time kill study relative to control; format: functional; parameters: scale not given: the % may be the effect or the level left
Pseudomonas aeruginosa [34] = assay: Antimicrobial activity against Pseudomonas aeruginosa ATCC 27853 assessed as reduction in log10 CFU/ml at MIC after 2 hr by time kill study relative to control; format: functional; parameters: scale not given: the % may be the effect or the level left
Aspergillus flavus [35] = assay: Antimicrobial activity against Aspergillus flavus ATCC 15517 assessed as reduction in log10 CFU/ml at MIC after 24 hr by time kill study relative to control; format: functional; parameters: scale not given: the % may be the effect or the level left
Aspergillus flavus [36] = assay: Antimicrobial activity against Aspergillus flavus ATCC 15517 assessed as reduction in log10 CFU/ml at MIC after 12 hr by time kill study relative to control; format: functional; parameters: scale not given: the % may be the effect or the level left
Aspergillus flavus [37] = assay: Antimicrobial activity against Aspergillus flavus ATCC 15517 assessed as reduction in log10 CFU/ml at MIC after 6 hr by time kill study relative to control; format: functional; parameters: scale not given: the % may be the effect or the level left
Aspergillus flavus [38] = assay: Antimicrobial activity against Aspergillus flavus ATCC 15517 assessed as reduction in log10 CFU/ml at MIC after 4 hr by time kill study relative to control; format: functional; parameters: scale not given: the % may be the effect or the level left

CN(C)CCn1c(-c2ccccc2)nc2ccc(Cl)cc2c1=O gave an MIC (Aspergillus flavus [1]) of 100 µg/mL (≈ 305 µM), an MIC (Candida albicans [2]) of 50 µg/mL (≈ 153 µM) and an MIC (Escherichia coli [3]) of 3.12 µg/mL (≈ 9.52 µM). It also gave an MIC (Staphylococcus aureus [4]) of 1.56 µg/mL (≈ 4.76 µM), an MIC (Pseudomonas aeruginosa [5]) of 6.25 µg/mL (≈ 19.1 µM) and an IC50 (HEp-2) of 20.5 µg/mL (≈ 62.5 µM). The IC50 (HeLa) was > 200 µg/mL, the IC50 [6] was 33.4 µg/mL (≈ 102 µM) and the Activity (Rattus norvegicus [7]) was 1.215 mm3. The Activity (Rattus norvegicus [8]) was 1.165 mm3, the Activity (Rattus norvegicus [9]) was 1.1875 mm3 and the Activity (Rattus norvegicus [10]) was 1.1825 mm3. It also gave an inhibition in vivo at 100 mg/kg (Rattus norvegicus [11]) of 88.4%.

O=c1c2cc(Cl)ccc2nc(-c2ccccc2)n1Cc1ccc(Cl)cc1 showed an MIC (Aspergillus flavus [1]) of 25 µg/mL (≈ 65.6 µM), an MIC (Candida albicans [2]) of 12.5 µg/mL (≈ 32.8 µM) and an MIC (Escherichia coli [3]) of 1.56 µg/mL (≈ 4.09 µM). For the same molecule, the MIC (Staphylococcus aureus [4]) was 0.78 µg/mL (≈ 2.05 µM), the MIC (Pseudomonas aeruginosa [5]) was 3.12 µg/mL (≈ 8.18 µM) and the IC50 (HEp-2) was > 50 µg/mL. For the same molecule, the IC50 (HeLa) was > 200 µg/mL, the IC50 [6] was > 50 µg/mL and the Activity (Rattus norvegicus [7]) was 1.1825 mm3. It also gave an Activity (Rattus norvegicus [8]) of 1.2325 mm3, an Activity (Rattus norvegicus [9]) of 1.195 mm3 and an Activity (Rattus norvegicus [12]) of 1.265 mm3. For the same molecule, the inhibition in vivo at 100 mg/kg (Rattus norvegicus [13]) was 72.9%.

Molecule O=c1c2cc(Cl)ccc2nc(-c2ccccc2)n1-c1ccc(F)cc1 has an Activity (Aspergillus flavus [14]) of 11.1%, an Activity (Candida albicans [15]) of 100% and an Activity (Candida albicans [16]) of 100%. The Activity (Candida albicans [17]) was 100%, the Activity (Candida albicans [18]) was 66.7% and the Activity (Candida albicans [19]) was 44.4%. The Activity (Escherichia coli [20]) was 100%, the Activity (Escherichia coli [21]) was 100% and the Activity (Escherichia coli [22]) was 100%. The Activity (Escherichia coli [23]) was 66.7%, the Activity (Escherichia coli [24]) was 33.3% and the Activity (Staphylococcus aureus [25]) was 100%. It also gave an Activity (Staphylococcus aureus [26]) of 100%, an Activity (Staphylococcus aureus [27]) of 100% and an Activity (Staphylococcus aureus [28]) of 66.7%. It also gave an Activity (Staphylococcus aureus [29]) of 33.3%, an Activity (Pseudomonas aeruginosa [30]) of 100% and an Activity (Pseudomonas aeruginosa [31]) of 100%. The Activity (Pseudomonas aeruginosa [32]) was 100%, the Activity (Pseudomonas aeruginosa [33]) was 66.7% and the Activity (Pseudomonas aeruginosa [34]) was 66.7%. The MIC (Aspergillus flavus [1]) was 6.25 µg/mL (≈ 17.8 µM), the MIC (Candida albicans [2]) was 1.56 µg/mL (≈ 4.45 µM) and the MIC (Escherichia coli [3]) was 0.39 µg/mL (≈ 1.11 µM). The MIC (Staphylococcus aureus [4]) was 0.39 µg/mL (≈ 1.11 µM), the MIC (Pseudomonas aeruginosa [5]) was 0.78 µg/mL (≈ 2.22 µM) and the IC50 (HEp-2) was 10.8 µg/mL (≈ 30.7 µM). The IC50 (HeLa) was < 25 µg/mL, the IC50 [6] was 16.6 µg/mL (≈ 47.3 µM) and the Activity (Rattus norvegicus [7]) was 1.21 mm3. It also gave an Activity (Rattus norvegicus [8]) of 1.275 mm3, an Activity (Rattus norvegicus [9]) of 1.21 mm3 and an Activity (Rattus norvegicus [12]) of 1.2675 mm3. It also gave an Activity (Rattus norvegicus [10]) of 1.22 mm3, an Activity (Aspergillus flavus [35]) of 100% and an Activity (Aspergillus flavus [36]) of 66.7%. For the same molecule, the Activity (Aspergillus flavus [37]) was 88.9% and the Activity (Aspergillus flavus [38]) was 22.2%.
